{
  "source": "patent US11555210B2",
  "about": "“Microbe having increased tolerance to phenolic fermentation inhibitors” (University of Ottawa, priority 2018, dated 2023)",
  "type_in_all_cases": "cell-based, S. cerevisiae",
  "key": {"wild-type yeast (BY4741)": {"tested_on": "wild-type yeast (BY4741)", "assay": "ROS measurement by H2DCFDA fluorescence microscopy", "details": "2 mM CA, 10 mM FA or 50 mM 4-HBA, 1 hour at 30° C.", "procedure": "Measurement of ROS was performed as previously described (Kennedy et al., 2016, Sci Rep. 6, 19332). Briefly cells were incubated with 10 μM 2′,7′-dichlorodihydrofluorescein diacetate (H2DCFDA; Invitrogen cat. #D399) for 15 min in the dark. […] An aliquot of 5 μL was spotted onto glass slides and covered with a cover slip prior to imaging. All images were acquired using a Leica DMI 6000 florescent microscope (Leica Microsystems GmbH, Wetzler Germany), equipped with a Sutter DG4 light source (Sutter Instruments, California, USA), Ludl emission filter wheel with Chroma band pass emission filters (Ludl Electronic Products Ltd., NY, USA) and Hamamatsu Orca AG camera (Hamamatsu Photonics, Herrsching am Ammersee, Germany). Images were acquired at 0.2 μm steps across 6 μm using a 63× oil-immersion objective with a 1.4 numerical aperture. Analysis of H2DCFDA fluorescence was performed using Velocity Software V4 (Perkin Elmer). Image J software was used to quantify the H2DCFDA fluorescence signal in cells as described by Schneider et al (Schneider et al., 2012, Nature Methods, 9, 671-675) with a slight modification. Briefly, background fluorescence was subtracted from the images and the total fluorescence of all the cells in the image was measured and divided by the number of cells in the image. The images contained a minimum of 100 cells. The ratio of fluorescence per cell of treated cultures was divided by that of untreated cultures to eliminate background endogenous ROS production."}, "zwf1Δ strains": {"tested_on": "zwf1Δ strains", "assay": "ROS measurement by H2DCFDA fluorescence microscopy", "details": "2 mM coniferyl aldehyde; ρ=0.012", "procedure": "For all microscopy experiments overnight cultures of wild-type yeast grown at 30° C. were re-suspended at an OD600 of 0.1 in YPD medium and allowed to reach mid-log phase prior to imaging. Measurement of ROS was performed as previously described (Kennedy et al., 2016, Sci Rep. 6, 19332). Briefly cells were incubated with 10 μM 2′,7′-dichlorodihydrofluorescein diacetate (H2DCFDA; Invitrogen cat. #D399) for 15 min in the dark. Cells were washed in sterile PBS to remove traces of the dye after which they were re-suspended in YPD medium alone, or YPD supplemented with either 2 mM coniferyl aldehyde, 10 mM ferulic acid or 50 mM 4-hydroxybenzoic acid or hydrogen peroxide for 1 hour at 30° C. […]\nAnalysis of H2DCFDA fluorescence was performed using Velocity Software V4 (Perkin Elmer). Image J software was used to quantify the H2DCFDA fluorescence signal in cells as described by Schneider et al (Schneider et al., 2012, Nature Methods, 9, 671-675) with a slight modification. Briefly, background fluorescence was subtracted from the images and the total fluorescence of all the cells in the image was measured and divided by the number of cells in the image. […] The ratio of fluorescence per cell of treated cultures was divided by that of untreated cultures to eliminate background endogenous ROS production. […]"}, "Zwf1-GFP": {"tested_on": "Zwf1-GFP", "assay": "Zwf1-GFP fluorescence microscopy", "procedure": "For the microscopy studies, wild type cells expressing endogenously tagged Zwf1-GFP (YKB4825) were grown to mid log in YPD, prior to being washed and resuspended in YPD medium (Untreated) or YPD medium containing 2 mM coniferyl aldehyde (CA) for 120 min at 30° C. Images (FIG. 8A) are representative of three independent experiments where a minimum of 100 cells each were imaged. Scale bar represents 10 μm."}, "Zwf1": {"tested_on": "Zwf1", "assay": "Zwf1 protein quantification by western blot", "details": "2 mM coniferyl aldehyde, 2 hours at 30° C.; ρ=0.00176", "procedure": "Protein quantification was carried out by western blots as follows. Overnight cultures of wild type cells were diluted in fresh YPD medium to a final OD600 of 0.1. These were grown at 30° C. until they reached the early log phase. Subsequently, coniferyl aldehyde was added to the cultures to a final concentration of 2 mM and the cultures were further incubated for 2 hours. Whole cell extracts (WCE) were obtained by centrifugation of the cells (3000 rpm for 3 min; 4° C.), washing of cell pellet with chilled sterile water and cell lysis using the Trichloroacetic acid (TCA) protocol (Kao and Osley, 2003, Methods. 31,59-66). Equal number of cells was used for the TCA lysis and equal volumes of WCE were used for the quantitative western blot analysis. […] Prior to the protein level quantification, the linear range of the target protein Zwf1 was determined by loading seven 2-fold dilutions of the WCE to obtain a standard curve of protein load versus band intensity of Zwf1. The amount of Zwf1 in the coniferyl aldehyde treated cultures and the control was quantified using the Image Lab software as previously described (Taylor and Posch, 2014, BioMed Research International. 2014, 361590). This was calculated as the ratio of the Zwf1 band intensity to the intensity of bands in the entire lane signal using the TGX Stain-Free Fast Cast (total proteins). […]"}},
  "data": [
    {"smiles": "COc1cc(C=CC=O)ccc1O", "note": "[coniferyl aldehyde, 4-hydroxy-3-methoxycinnamaldehyde]", "values": [
      {"measurement": "subcellular distribution of induced ROS", "setting": "wild-type yeast (BY4741)", "value": "formed punctate structures within the cell"},
      {"measurement": "ROS signal in zwf1Δ compared to wild-type", "setting": "zwf1Δ strains", "value": "over two-fold induction"},
      {"measurement": "Zwf1-GFP fluorescence signal/cell", "setting": "Zwf1-GFP; 2 mM CA for 120 min at 30° C. (ρ=9.69E-5), ferulic acid 10 mM", "value": "significant increase"},
      {"measurement": "Zwf1-GFP localization", "setting": "Zwf1-GFP; 2 mM coniferyl aldehyde, 2 hours", "value": "punctuate localization"},
      {"measurement": "increase in Zwf1 protein levels compared to untreated", "setting": "Zwf1", "value": 1.5, "unit": "fold"}
    ]}
  ]
}
